Legend:
Assay in all cases: relative viability (nuclei count vs DMSO), 5 days (fraction); higher = more cells survive
[1] = tested on: ChaGo-K-1
In short: (§1)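 The day after seeding in 1536-well plates, lung cancer cell lines were treated by pin tool with a single drug, or with a fixed anchor-drug dose together with five library-drug doses (not always all listed) in √10 steps. After 5 days, a combined fix-and-stain solution (final 0.05% Triton X-100, 1% formaldehyde, 1 ug/ml Hoechst) was added. Nuclei counted on 4× images gave relative viability as treated counts over vehicle counts, reported as the median of duplicate plates.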

[2] = tested on: EMC-BAC-2
In short: as §1

[3] = tested on: EPLC-272H
In short: as §1

[4] = tested on: HCC-44
In short: as §1

[5] = tested on: HOP-62
In short: as §1

[6] = tested on: LCLC-103H
In short: as §1

[7] = tested on: LCLC-97TM1
In short: as §1

[8] = tested on: LOU-NH91
In short: as §1

[9] = tested on: NCI-H1395
In short: as §1

[10] = tested on: NCI-H1975
In short: as §1

[11] = tested on: NCI-H1993
In short: as §1

[12] = tested on: NCI-H2085
In short: as §1

[13] = tested on: NCI-H2126
In short: as §1

[14] = tested on: NCI-H2170
In short: as §1

[15] = tested on: NCI-H2228
In short: as §1

[16] = tested on: NCI-H2342
In short: as §1

[17] = tested on: NCI-H2405
In short: as §1

[18] = tested on: NCI-H3122
In short: as §1

[19] = tested on: NCI-H322M
In short: as §1

[20] = tested on: NCI-H460
In short: as §1

[21] = tested on: NCI-H520
In short: as §1

[22] = tested on: NCI-H647
In short: as §1

[23] = tested on: SK-LU-1
In short: as §1

Structure (SMILES): C=C1C(=O)O[C@@H](CCCCCCCC)[C@@H]1C(=O)O [C-75] + Nc1nc2[nH]cc(CCc3ccc(C(=O)N[C@@H](CCC(=O)O)C(=O)O)cc3)c2c(=O)[nH]1 [Pemetrexed] (partner 0.2 µM)
- relative viability ([1]; first compound 0.08 µM): 0.265
- relative viability ([1]; first compound 0.253 µM): 0.259
- relative viability ([1]; first compound 0.8 µM): 0.239
- relative viability ([1]; first compound 2.53 µM): 0.243
- relative viability ([1]; first compound 8 µM): 0.254
- relative viability ([2]; first compound 0.08 µM): 0.438
- relative viability ([2]; first compound 0.253 µM): 0.432
- relative viability ([2]; first compound 0.8 µM): 0.469
- relative viability ([2]; first compound 2.53 µM): 0.328
- relative viability ([2]; first compound 8 µM): 0.426
- relative viability ([3]; first compound 0.08 µM): 0.313
- relative viability ([3]; first compound 0.253 µM): 0.267
- relative viability ([3]; first compound 0.8 µM): 0.329
- relative viability ([3]; first compound 2.53 µM): 0.202
- relative viability ([3]; first compound 8 µM): 0.24
- relative viability ([4]; first compound 0.08 µM): 0.58
- relative viability ([4]; first compound 0.253 µM): 0.698
- relative viability ([4]; first compound 0.8 µM): 0.683
- relative viability ([4]; first compound 2.53 µM): 0.572
- relative viability ([4]; first compound 8 µM): 0.634
- relative viability ([5]; first compound 0.08 µM): 0.365
- relative viability ([5]; first compound 0.253 µM): 0.306
- relative viability ([5]; first compound 0.8 µM): 0.291
- relative viability ([5]; first compound 2.53 µM): 0.268
- relative viability ([5]; first compound 8 µM): 0.311
- relative viability ([6]; first compound 0.08 µM): 0.464
- relative viability ([6]; first compound 0.253 µM): 0.428
- relative viability ([6]; first compound 0.8 µM): 0.458
- relative viability ([6]; first compound 2.53 µM): 0.326
- relative viability ([6]; first compound 8 µM): 0.433
- relative viability ([7]; first compound 0.08 µM): 0.197
- relative viability ([7]; first compound 0.253 µM): 0.195
- relative viability ([7]; first compound 0.8 µM): 0.177
- relative viability ([7]; first compound 2.53 µM): 0.129
- relative viability ([7]; first compound 8 µM): 0.145
- relative viability ([8]; first compound 0.08 µM): 0.308
- relative viability ([8]; first compound 0.253 µM): 0.362
- relative viability ([8]; first compound 0.8 µM): 0.386
- relative viability ([8]; first compound 8 µM): 0.378
- relative viability ([9]; first compound 0.08 µM): 0.881
- relative viability ([9]; first compound 0.253 µM): 0.807
- relative viability ([9]; first compound 2.53 µM): 0.758
- relative viability ([9]; first compound 8 µM): 0.914
- relative viability ([10]; first compound 0.08 µM): 0.281
- relative viability ([10]; first compound 0.253 µM): 0.287
- relative viability ([10]; first compound 0.8 µM): 0.262
- relative viability ([10]; first compound 2.53 µM): 0.264
- relative viability ([10]; first compound 8 µM): 0.292
- relative viability ([11]; first compound 0.08 µM): 0.564
- relative viability ([11]; first compound 0.253 µM): 0.716
- relative viability ([11]; first compound 0.8 µM): 0.541
- relative viability ([11]; first compound 2.53 µM): 0.652
- relative viability ([11]; first compound 8 µM): 0.478
- relative viability ([12]; first compound 0.08 µM): 0.875
- relative viability ([12]; first compound 0.253 µM): 0.738
- relative viability ([12]; first compound 0.8 µM): 0.857
- relative viability ([12]; first compound 2.53 µM): 0.788
- relative viability ([12]; first compound 8 µM): 0.902
- relative viability ([13]; first compound 0.08 µM): 0.727
- relative viability ([13]; first compound 0.253 µM): 0.681
- relative viability ([13]; first compound 0.8 µM): 0.725
- relative viability ([13]; first compound 2.53 µM): 0.622
- relative viability ([13]; first compound 8 µM): 0.673
- relative viability ([14]; first compound 0.08 µM): 0.244
- relative viability ([14]; first compound 0.253 µM): 0.271
- relative viability ([14]; first compound 0.8 µM): 0.286
- relative viability ([14]; first compound 2.53 µM): 0.266
- relative viability ([14]; first compound 8 µM): 0.282
- relative viability ([15]; first compound 0.08 µM): 0.33
- relative viability ([15]; first compound 0.253 µM): 0.332
- relative viability ([15]; first compound 0.8 µM): 0.29
- relative viability ([15]; first compound 2.53 µM): 0.333
- relative viability ([15]; first compound 8 µM): 0.318
- relative viability ([16]; first compound 0.08 µM): 0.815
- relative viability ([16]; first compound 0.253 µM): 0.771
- relative viability ([16]; first compound 0.8 µM): 0.693
- relative viability ([16]; first compound 2.53 µM): 0.62
- relative viability ([16]; first compound 8 µM): 0.766
- relative viability ([17]; first compound 0.08 µM): 1
- relative viability ([17]; first compound 0.253 µM): 0.763
- relative viability ([17]; first compound 0.8 µM): 1.12
- relative viability ([17]; first compound 2.53 µM): 0.605
- relative viability ([17]; first compound 8 µM): 1.01
- relative viability ([18]; first compound 0.08 µM): 0.2
- relative viability ([18]; first compound 0.253 µM): 0.208
- relative viability ([18]; first compound 0.8 µM): 0.181
- relative viability ([18]; first compound 2.53 µM): 0.189
- relative viability ([18]; first compound 8 µM): 0.185
- relative viability ([19]; first compound 0.08 µM): 0.633
- relative viability ([19]; first compound 0.253 µM): 0.6
- relative viability ([19]; first compound 0.8 µM): 0.575
- relative viability ([19]; first compound 8 µM): 0.625
- relative viability ([20]; first compound 0.08 µM): 0.0548
- relative viability ([20]; first compound 0.253 µM): 0.0554
- relative viability ([20]; first compound 0.8 µM): 0.0669
- relative viability ([20]; first compound 2.53 µM): 0.0313
- relative viability ([20]; first compound 8 µM): 0.0571
- relative viability ([21]; first compound 0.08 µM): 0.62
- relative viability ([21]; first compound 0.253 µM): 0.669
- relative viability ([21]; first compound 0.8 µM): 0.643
- relative viability ([21]; first compound 2.53 µM): 0.578
- relative viability ([21]; first compound 8 µM): 0.55
- relative viability ([22]; first compound 0.08 µM): 0.181
- relative viability ([22]; first compound 0.253 µM): 0.186
- relative viability ([22]; first compound 0.8 µM): 0.167
- relative viability ([22]; first compound 2.53 µM): 0.171
- relative viability ([22]; first compound 8 µM): 0.128
- relative viability ([23]; first compound 0.08 µM): 0.984
- relative viability ([23]; first compound 0.253 µM): 0.87
- relative viability ([23]; first compound 0.8 µM): 0.845
- relative viability ([23]; first compound 2.53 µM): 0.866
- relative viability ([23]; first compound 8 µM): 0.746

— the supplement of paper PMC10307832
